Legend:
[1] = system: LPS induced IL23p19 in THP-1 cells; test: LPS Induced IL23p19 in THP-1 Cells (with IFNγ Primed) Assay; format: cell-based; conditions: Homo sapiens; THP-1 cells primed with IFNγ 50 ng/mL, 1 μg/mL LPS, 18 hours, 10 pt; read-out: IL23-p19 ELISA, THP1-IFNy, LPS, 10 pt EC50
Text: LPS Induced IL23p19 in THP-1 Cells (with IFNγ Primed) Assay
THP-1 Cells (ATCC, Cat # TIB-202), Dimethyl Sulfoxide (DMSO) (Sigma-Aldrich, Cat # D2650), RPMI 1640 (Cellgro, Cat #10-040-CM), Fetal Bovine Serum (Sigma, Cat # F4135), Albumin From Bovine Serum (BSA) (Sigma-Aldrich, Cat # A7906), LPS (Serotype K-235, Sigma, Product Number L 2143), IFNγ (Peprotech, Cat #300-02), Capture antibody: Human IL-23p19 ELISA (e-Bioscience, Cat. #14-7238-85), Detection antibody: Primary Mouse Biotinylated anti-human IL-12 (p40/p70) (e-Bioscience, Cat. #13-7129-85), Secondary HRP-conjugated Streptavidin (R&D Systems, Cat # DY998), 1×PBST Washing Buffer (PBS-Tween tablet) (VWR International, Cat #80058-558), ELISA Blocking Buffer (PBS with 1% BSA), ELISA Dilution Buffer (PBS with 1% BSA), 384 Well Flat-Bottom, MaxiSorp Black Immuno Plates (Thermo Scientific, Cat #12-565-346), 384 Well Flat-Bottom, White Tissue Culture Plates (Thermo Scientific, Cat #12-565-343), Super Signal ELISA Pico Chemiluminescent Substrate (Thermo Scientific, Cat #37070), Cell Titer Glo reagent (Promega, Cat # G7573), Positive control, IKK2VI inhibitor (Calbiochem, Cat #401483), AquaMax 4000 plate washer (Molecular Devices), Luminometer, Wallac Victor2 1420 Multilabel Counter.
On day 1, 50K/well THP-1 cells were seeded and primed with IFNγ (50 ng/mL) in 384-well plates for about 18 hours in RPMI media with 10% FBS. On day 2, the compound was serially diluted in DMSO from 5 mM in 3-fold dilutions, and then diluted 1:125 in RPMI media with 10% FBS. 50 μL/well 2× compound was added to 50 μL/well THP-1 cells (with IFNγ primed) in duplicate in 384 well tissue culture plates. The cells were pre-incubated with compound for 1 hour at 37° C., 5% CO2 before addition of 10 μL/well 11×LPS to give a final concentration of 1 μg/mL LPS. Day 3, after stimulation for 18 hours at 37° C., 5% CO2, the assay plate was centrifuged and 70 μL/well supernatant was harvested. IL-23p19 protein in 70 μL/well of supernatant was measured by sandwich ELISA, and 25 μl/well Cell Titer Glo reagent was added to the remaining cells to measure compound toxicity.
Human IL-23p19 Sandwich ELISA:
Maxisorp immuno ELISA plates were pre-coated with 25 μL/well of anti-IL-23p19 capture antibody (2.5 ug/mL) in PBS overnight at room temperature. After washing with 1×PBST, the plates were blocked using 100 μL/well of 1% BSA in PBS for 2 hours at room temperature. The plates were washed three times with 1×PBST and 70 μL/well supernatant were added. The plates were incubated at room temperature for 2 hours with shaking and washed three times with 1×PBST. 25 μL/well of biotin labeled anti-IL-12 (p40/p70) detection antibody (100 ng/mL) in PBS with 1% BSA was added and the plates were incubated at room temperature for 2 hours with shaking. After washing three times with 1×PBST, 25 μL/well of streptavidin-HRP (1:200) in PBS with 1% BSA was added and the plates were incubated at room temperature for 20 minutes with shaking. The plates were washed three times with 1×PBST and 25 μL/well of Super Signal ELISA Pico Chemiluminescent Substrate were added. The plates were read with a luminometer, and the chemiluminescence values were entered into Athena (Rigel) for curve fitting, EC50 calculation, and database storage.

[2] = system: LPS induced IL-23 (p19/p40) in DC cells differentiated from human PBMC; test: IL23-p19 ELISA, dendritic cells (DC differentiated from human PBMC), IFNγ primed, LPS stimulated; format: cell-based; conditions: human PBMC-derived dendritic cells, 1 μg/ml LPS, 18 hours, 10 pt
Procedure: Compound Screening Using DC Cells
1. Differentiation of PBMC's to DC Cells:
Human PBMC cells (400 million) obtained from the vendor were transferred into a T-175 flask containing 15 ml RPMI media (10% FBS) and incubate for 2 hours at 37° C. After 2 hours, the media including floating cells was aspirated out carefully and 12 ml of fresh RPMI media (10% FBS) containing GMCSF (100 ng/ml) and IL4 (20 ng/ml) was added, and the flask was kept in a 37° C. incubator for 7 days.
After 3 days, fresh GMCSF (100 ng/ml) and IL4 (20 ng/ml) were added to the flask and the incubation continued. After 7 days, the fully differentiated cells were harvested by spinning down (1200 rpm/5 min) and aspirating the media. The cells were suspended in fresh RPMI media (10% FBS) containing 50 ng/ml IFNγ (1000 U/ml) and then plated (50K/well in 100 μl) onto a white clear bottom 96 well plate and left in a 37° C. incubator for 24 hours.
2. Addition of Compounds:
After 24 hours incubation, 100 μl of RPMI media was added containing 2× concentrated test compound per well to the above cell-culture media (final concentration becomes 1×) and the plates were pre-incubated for 1 hour at 37° C. before stimulating with LPS.
After 1 hour compound pre-incubation, 10 μl per well of 20× concentrated LPS solution in RPMI media was added to give a final concentration of 1 μg/ml. The mixture was shaken and incubated the plates at 37° C. for an additional 18 hours.
155 μl of the supernatant was harvested from each well carefully (without the tip touching the bottom of the well) and to the remaining 50 μl/well of the cell culture plate was added 50 μl of Cell Titer Glo reagent. The mixture was incubated for 1-2 minutes on a shaker and the plate was read for luminescence intensity to determine the compound cytotoxicity. The cell culture supernatant collected above was used to carry out IL23 ELISA (65 μl-Supernatant) and IL10 ELISA (90 μl-Supernatant) as described below.
Human IL-23 (p19/p40) ELISA Protocol (e-Biosciences)
To 10.5 ml PBS add 50 μl of anti-IL23 (p19) was added capture antibody (2.5 μg/ml). The mixture was mixed well and 100 μl of the coating solution was added to each well of the 96 well white plates from Pierce. The wells were covered and incubated overnight at 4° C.
The anti-IL23 (p19)-antibody-coated plates were washed 2× using TBST (use plate washer) and blocked using 200 μl of 0.5% Casein for 1.5-2 hours at room temperature with shaking.
The plates were washed 2× using TBST and the supernatant was transferred (65 μl/well) to the above pre-blocked/IL23 (p19)-antibody-coated 96 well plate, and incubated at room temperature for 1.5 hours with shaking.
The plates were washed 4× using TBST (plate washer) and 100 μl/well detection antibody solution prepared from 2 μl of biotin labeled anti-IL-12 (p40/p70) antibody in 11 ml 1% BSA/PBS solution (1-5000 dilution) was added. The plates were incubated for 1 hour with shaking at room temperature.
Again, the plates were washed 4× with TBST and 100 μl of HRP labeled Streptavidin (R&D Systems) solution (10 μl/10 ml 1% BSA solution) was added, and the plates were incubated at room temperature for another 45 minutes with shaking.
After 45 minutes, the plates were washed with TBST 4× and 100 ul/well Super Signal ELISA Pico Chemiluminescent Substrate from Pierce (3.5 ml A+3.5 ml B+3.5 ml MQ water) was added. The plates were shaken for 1-2 minutes then read on a plate reader.

EC50 [1]	SMILES	EC50 [2]
0.134 µM	O=C(Nc1ccc(N2CCOCC2)cc1N1CCC(O)CC1)c1ccc(-c2cn[nH]c2)o1 [I-11, N-(2-(4-hydroxypiperidin-1-yl)-4-morpholinophenyl)-5-(1H-pyrazol-4-yl)furan-2-carboxamide]	0.162 µM
0.0841 µM	O=C(Nc1ccc(N2CCOCC2)cc1N1CCC(O)CC1)c1csc(-c2cn[nH]c2)n1 [I-12, N-(2-(4-hydroxypiperidin-1-yl)-4-morpholinophenyl)-2-(1H-pyrazol-4-yl)thiazole-4-carboxamide]	0.06 µM
1.73 µM	O=C(Nc1ccc(N2CCOCC2)cc1N1CCOCC1)c1cccc(-c2cn[nH]c2)n1 [I-13, N-(2,4-dimorpholinophenyl)-6-(1H-pyrazol-4-yl)picolinamide]	14.4 µM
0.178 µM	O=C(Nc1ccc(N2CCOCC2)cc1N1CCOCC1)c1ccc(-c2cn[nH]c2)o1 [I-14, N-(2,4-dimorpholinophenyl)-5-(1H-pyrazol-4-yl)furan-2-carboxamide]	1.92 µM
2.52 µM	O=C(Nc1ccc(N2CCOCC2)cc1N1CCC(F)(F)CC1)c1cccc(-c2cn[nH]c2)n1 [I-19, N-(2-(4,4-difluoropiperidin-1-yl)-4-morpholinophenyl)-6-(1H-pyrazol-4-yl)picolinamide]	
3.38 µM	COc1ccc(N2CCOCC2)cc1NC(=O)c1ccc(-c2cn[nH]c2)o1 [I-40, N-(2-methoxy-5-morpholinophenyl)-5-(1H-pyrazol-4-yl)furan-2-carboxamide]	
9.78 µM	O=C(Nc1ccc(CCN2CCOCC2)cc1N1CCCCC1)c1ccc(-c2cn[nH]c2)o1 [I-55, N-(4-(2-morpholinoethyl)-2-(piperidin-1-yl)phenyl)-5-(1H-pyrazol-4-yl)furan-2-carboxamide]	
52.8 µM	O=C(Nc1cc(N2CCOCC2)ccc1N1CCCCC1)c1cccc(-c2cn[nH]c2)n1 [I-75, N-(5-morpholino-2-(piperidin-1-yl)phenyl)-6-(1H-pyrazol-4-yl)picolinamide]	

Second part, the compound before the results:

SMILES	EC50 [1]	EC50 [2]
CN1CCN(c2ccc(NC(=O)c3cccc(-c4cn[nH]c4)n3)c(N3CCCCC3)c2)CC1 [I-1, N-(4-(4-methylpiperazin-1-yl)-2-(piperidin-1-yl)phenyl)-6-(1H-pyrazol-4-yl)picolinamide]	0.308 µM	0.843 µM
CN1CCN(c2ccc(NC(=O)c3ccc(-c4cn[nH]c4)o3)c(N3CCCCC3)c2)CC1 [I-2, N-(4-(4-methylpiperazin-1-yl)-2-(piperidin-1-yl)phenyl)-5-(1H-pyrazol-4-yl)furan-2-carboxamide]	0.0368 µM	0.12 µM
CN1CCN(c2ccc(NC(=O)c3csc(-c4cn[nH]c4)n3)c(N3CCCCC3)c2)CC1 [I-3, N-(4-(4-methylpiperazin-1-yl)-2-(piperidin-1-yl)phenyl)-2-(1H-pyrazol-4-yl)thiazole-4-carboxamide]	0.0259 µM	0.0712 µM
O=C(Nc1ccc(N2CCOCC2)cc1N1CCC(F)CC1)c1cccc(-c2cn[nH]c2)n1 [I-4, N-(2-(4-fluoropiperidin-1-yl)-4-morpholinophenyl)-6-(1H-pyrazol-4-yl)picolinamide]	0.314 µM	3.6 µM
O=C(Nc1ccc(N2CCOCC2)cc1N1CCC(F)CC1)c1ccc(-c2cn[nH]c2)o1 [I-5, N-(2-(4-fluoropiperidin-1-yl)-4-morpholinophenyl)-5-(1H-pyrazol-4-yl)furan-2-carboxamide]	0.145 µM	0.182 µM
O=C(Nc1ccc(N2CCOCC2)cc1N1CCC(F)CC1)c1csc(-c2cn[nH]c2)n1 [I-6, N-(2-(4-fluoropiperidin-1-yl)-4-morpholinophenyl)-2-(1H-pyrazol-4-yl)thiazole-4-carboxamide]	0.0764 µM	0.114 µM
CN1CCN(c2ccc(NC(=O)c3cccc(-c4cn[nH]c4)n3)c(N3CCC(F)CC3)c2)CC1 [I-7, N-(2-(4-fluoropiperidin-1-yl)-4-(4-methylpiperazin-1-yl)phenyl)-6-(1H-pyrazol-4-yl)picolinamide]	0.88 µM	0.689 µM
CN1CCN(c2ccc(NC(=O)c3ccc(-c4cn[nH]c4)o3)c(N3CCC(F)CC3)c2)CC1 [I-8, N-(2-(4-fluoropiperidin-1-yl)-4-(4-methylpiperazin-1-yl)phenyl)-5-(1H-pyrazol-4-yl)furan-2-carboxamide]	0.0637 µM	0.182 µM
CN1CCN(c2ccc(NC(=O)c3csc(-c4cn[nH]c4)n3)c(N3CCC(F)CC3)c2)CC1 [I-9, N-(2-(4-fluoropiperidin-1-yl)-4-(4-methylpiperazin-1-yl)phenyl)-2-(1H-pyrazol-4-yl)thiazole-4-carboxamide]	0.036 µM	0.0672 µM
O=C(Nc1ccc(N2CCOCC2)cc1N1CCC(O)CC1)c1cccc(-c2cn[nH]c2)n1 [I-10, N-(2-(4-hydroxypiperidin-1-yl)-4-morpholinophenyl)-6-(1H-pyrazol-4-yl)picolinamide]	0.303 µM	1.74 µM

Reference: patent US10590121B2, “Kinase inhibitors and methods for making and using” (Rigel Pharmaceuticals, Inc., priority 2017, dated 2020)
